For experiment [1], the target named is T1, MLC kinase (myosin light-chain kinase) (Gallus gallus, UniProt P11799).
T1 construct: MLC kinase was purified from chicken stomach; from tissue; host or cells: chicken stomach (gizzard smooth muscle)
The experiment in a line: inhibition of MLC kinase, in vitro enzyme test (32P phosphate incorporation). In kind it is biochemical, chicken (stomach). As to conditions: for IC50: 1 nM MLC kinase, 250 μM ATP, pH 7.2, 20 minutes at 30° C., read-out: inhibition of the protein kinases, MLC-kinase IC50; for MLC kinase inhibition, in words: potency and selectivity vs protein kinase C; for ratio of IC50 C-kinase/IC50 MLC-kinase: selectivity factor calculated from the IC50 values.
Procedure: Inhibition of the enzyme MLC kinase (EC 3.6.1.3; kinase of the light myosin chain; myosin light-chain kinase).
The inhibition of MLC kinase was measured in an in vitro enzyme test.
The reaction was initiated by the addition of 1 nM MLC kinase. After incubation for 20 minutes at 30° C., the reaction was stopped with TCA and the samples then filtered off. The phosphate incorporation took place by means of Cerenkov counting of the filter.

Another experiment concerns the target protein kinase C. Put plainly: inhibition of protein kinase C, enzyme test. Type of experiment: biochemical. The conditions noted are these: read-out: inhibition of the protein kinases, C-kinase IC50. The procedure: In order to ascertain whether it is a question of a selective inhibition of MLC kinase, the compounds were also investigated in other enzyme tests for protein kinase, including tests for protein kinase C. The results from the PKC test are also given in the following Table I. Furthermore, the Table contains selectivity factors which were calculated by the determination of the ratios of the IC50 values.

Some results are limits rather than exact numbers.

The IC50 is the concentration that gives 50% inhibition.

T1 sequence (P11799 935-1906): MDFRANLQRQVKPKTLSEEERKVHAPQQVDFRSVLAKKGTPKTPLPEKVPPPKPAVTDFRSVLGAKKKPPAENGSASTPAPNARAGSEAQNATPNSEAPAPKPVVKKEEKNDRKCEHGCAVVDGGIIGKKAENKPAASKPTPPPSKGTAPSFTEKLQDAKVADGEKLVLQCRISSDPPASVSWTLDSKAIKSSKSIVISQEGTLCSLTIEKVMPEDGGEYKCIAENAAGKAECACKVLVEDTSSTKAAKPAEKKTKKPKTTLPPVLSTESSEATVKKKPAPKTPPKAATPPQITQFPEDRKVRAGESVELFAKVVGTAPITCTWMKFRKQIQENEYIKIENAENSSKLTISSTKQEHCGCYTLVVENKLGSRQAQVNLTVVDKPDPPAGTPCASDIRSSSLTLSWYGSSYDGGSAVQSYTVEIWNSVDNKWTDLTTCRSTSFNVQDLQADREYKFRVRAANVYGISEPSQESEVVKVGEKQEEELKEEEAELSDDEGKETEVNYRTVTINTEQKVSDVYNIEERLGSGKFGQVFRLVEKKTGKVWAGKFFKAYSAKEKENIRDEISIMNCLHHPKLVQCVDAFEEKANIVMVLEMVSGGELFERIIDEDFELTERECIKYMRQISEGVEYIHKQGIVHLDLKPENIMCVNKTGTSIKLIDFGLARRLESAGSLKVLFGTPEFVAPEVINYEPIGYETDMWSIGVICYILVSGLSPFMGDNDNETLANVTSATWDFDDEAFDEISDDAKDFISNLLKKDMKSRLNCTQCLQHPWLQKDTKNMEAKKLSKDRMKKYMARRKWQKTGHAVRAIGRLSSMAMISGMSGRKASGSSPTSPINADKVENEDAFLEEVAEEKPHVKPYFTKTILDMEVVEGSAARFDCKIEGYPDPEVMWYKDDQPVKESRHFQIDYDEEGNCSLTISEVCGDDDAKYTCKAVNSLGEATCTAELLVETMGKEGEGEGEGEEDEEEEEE

Regarding `COc1ccc2c(c1)c1c3c(c4c5cc(Cl)ccc5n(CCCN)c4c1n2C)C(=O)NC3=O` [Example 4b, 13-(3-aminopropyl)-3-chloro-6,7,12,13-tetrahydro-9-methoxy-12-methyl-5,7-dioxo-5H-indolo[2,3-a]pyrrolo-[3,4-c]carbazole], in experiment [1], the IC50 was found to be 1.5 nM; the “MLC kinase inhibition, in words” value is “potent and selective inhibitors of MLC kinase”; the “ratio of IC50 C-kinase/IC50 MLC-kinase” value was 23. Besides, the IC50 at protein kinase C came to 34 nM.
With `COc1ccc2c(c1)c1c3c(c4c5cc(OC)ccc5n(CCC#N)c4c1n2C)C(=O)NC3=O` [Example 1c, 12-(2-cyanoethyl)-6,7,12,13-tetrahydro-3,9-dimethoxy-13-methyl-5,7-dioxo-5H-indolo[2,3-a]pyrrolo[3,4-c]-carbazole], the IC50 came to 180 nM in experiment [1] and 19 nM on protein kinase C. The “ratio of IC50 C-kinase/IC50 MLC-kinase” value in experiment [1] was 0.1.
In the case of `COc1cc2c3c4c(c5c6ccccc6n(C)c5c3n(CCCN(C)C)c2cc1OC)C(=O)NC4=O` [Example 1z, 13-(3-dimethylaminopropyl)-6,7,12,13-tetrahydro-2,3-dimethoxy-12-methyl-5,7-dioxo-5H-indolo[2,3-a]-pyrrolo[3,4-c]carbazole], in experiment [1], the IC50 was found to be 20 nM and the “ratio of IC50 C-kinase/IC50 MLC-kinase” value was 1.3. The IC50 on protein kinase C was 26 nM.
The like results for `CN(C)CCCn1c2ccc(O)cc2c2c3c(c4c5ccccc5n(C)c4c21)C(=O)NC3=O` [Example 2g, 13-(3-dimethylaminopropyl)-6,7,12,13-tetrahydro-3-hydroxy-12-methyl-5,7-dioxo-5H-indolo[2,3-a]pyrrolo-25 [3,4-c]carbazole] were, in that order, 5 nM, 8 and 40 nM.
In the same order, the values of `Cn1c2ccccc2c2c3c(c4c5cc(O)c(O)cc5n(CCC#N)c4c21)C(=O)NC3=O` [Example 2b, 13-(2-cyanoethyl)-6,7,12,13-tetrahydro-2,3-dihydroxy-12-methyl-5,7-dioxo-5H-indolo[2,3-a]pyrrolo[3,4-c]-carbazole] are 32 nM, 7.2 and 230 nM.
The like results for `Cn1c2ccccc2c2c3c(c4c5cc(O)ccc5n(CCC#N)c4c21)C(=O)NC3=O` [Example 2, 13-(2-Cyanoethyl)-6,7,12,13-tetrahydro-3-hydroxy-12-methyl-5,7-dioxo-5H-indolo[2,3-a]pyrrolo[3,4-c]-carbazole] were, in that order, 19 nM, 1.3 and 24 nM.
As to `Cn1c2ccccc2c2c3c(c4c5ccccc5n(CCCC#N)c4c21)C(=O)NC3=O` [Example 1g, 12-(3-cyanopropyl)-6,7,12,13-tetrahydro-13-methyl-5,7-dioxo-5H-indolo[2,3-a]pyrrolo[3,4-c]carbazole], in experiment [1], the IC50 came to 22 nM and the “ratio of IC50 C-kinase/IC50 MLC-kinase” value is given as 1.6. Further, at protein kinase C, the IC50 amounted to 36 nM.
Turning to `CC(CC#N)n1c2ccccc2c2c3c(c4c5ccccc5n(C)c4c21)C(=O)NC3=O` (stereo not drawn) [Example 1d, 12-(3-cyano-2-propyl)-6,7,12,13-tetrahydro-13-methyl-5,7-dioxo-5H-indolo[2,3-a]pyrrolo[3,4-c]carbazole], the IC50 in experiment [1] was found to be 62 nM; on protein kinase C it was 35 nM. Besides, in experiment [1], the “ratio of IC50 C-kinase/IC50 MLC-kinase” value is reported as 0.6.
In the same order, the values of `COc1ccc2c(c1)c1c3c(c4c5ccccc5n(C)c4c1n2CCCC#N)C(=O)NC3=O` [Example 1q, 13-(3-cyanopropyl)-6,7,12,13-tetrahydro-3-methoxy-12-methyl-5,7-dioxo-5H-indolo[2,3-a]pyrrolo[3,4-c]-carbazole] are 32 nM, 4.7 nM and 0.15.
As to `Cn1c2ccccc2c2c3c(c4c5ccccc5n(CCCN=[N+]=[N-])c4c21)C(=O)NC3=O` [Example 1l, 12-(3-azidopropyl)-6,7,12,13-tetrahydro-13-methyl-5,7-dioxo-5H-indolo[2,3-a]pyrrolo[3,4-c]carbazole], in experiment [1], the IC50 was found to be 130 nM and the “ratio of IC50 C-kinase/IC50 MLC-kinase” value was 0.4. The IC50 at protein kinase C came out at 50 nM.
In the same order, the values of `COc1ccc2c(c1)c1c3c(c4c5ccccc5n(CCC#N)c4c1n2C)C(=O)NC3=O` [Example 1b, 12-(2-cyanoethyl)-6,7,12,13-tetrahydro-3-methoxy-13-methyl-5,7-dioxo-5H-indolo[2,3-a]pyrrolo[3,4-c]-carbazole] are 49 nM, 0.7 and 35 nM.
The like results for `Cc1ccc2[nH]c3c4[nH]c5ccc(C)cc5c4c4c(c3c2c1)C(=O)NC4=O` [Example 11e, 6,7,12,13-tetrahydro-3,9-dimethyl-5,7-dioxo-5H-indolo[2,3-a]pyrrolo[3,4-c]carbazole] were, in that order, 600 nM, more than 17 and more than 10000 nM.
For `COc1ccc2c(c1)c1c3c(c4c5ccccc5n(C)c4c1n2CCCN)C(=O)NC3=O` [Example 4a, 13-(3-aminopropyl)-6,7,12,13-tetrahydro-3-methoxy-12-methyl-5,7-dioxo-5H-indolo[2,3-a]pyrrolo[3,4-c]-carbazole], in experiment [1], the IC50 was determined as 4.9 nM; the “MLC kinase inhibition, in words” value was “potent and selective inhibitors of MLC kinase”; the “ratio of IC50 C-kinase/IC50 MLC-kinase” value is 74. Moreover, at protein kinase C, the IC50 amounted to 360 nM.
For the molecule `Cn1c2ccc(O)cc2c2c3c(c4c5cc(O)ccc5n(CCC#N)c4c21)C(=O)NC3=O` [Example 2f, 12-(2-cyanoethyl)-6,7,12,13-tetrahydro-3,9-dihydroxy-13-methyl-5,7-dioxo-5H-indolo[2,3-a]pyrrolo-[3,4-c]carbazole], in experiment [1], the IC50 worked out at 10 nM and the “ratio of IC50 C-kinase/IC50 MLC-kinase” value is 0.4. For the same molecule, at protein kinase C, the IC50 is 4.2 nM.
The like results for `COc1ccc2c(c1)c1c3c(c4c5ccccc5n(CCCN(C)C)c4c1n2C)C(=O)NC3=O` [Example 1y, 12-(3-dimethylaminopropyl)-6,7,12,13-tetrahydro-3-methoxy-13-methyl-5,7-dioxo-5H-indolo[2,3-a]pyrrolo-[3,4-c]carbazole] were, in that order, 7.6 nM, 4.1 and 31 nM.
In the same order, the values of `CC(C)NCCCn1c2ccccc2c2c3c(c4c5ccccc5n(C)c4c21)C(=O)NC3=O` [Example 4c, 13-(3-isopropylaminopropyl)-6,7,12,13-tetrahydro-13-methyl-5,7-dioxo-5H-indolo[2,3-a]pyrrolo[3,4-c]-carbazole] are 21 nM, 2.5 and 53 nM.
In the same order, the values of `COc1ccc2c(c1)c1c3c(c4c5ccccc5n(CCCC#N)c4c1n2C)C(=O)NC3=O` [Example 1h, 12-(3-cyanopropyl)-6,7,12,13-tetrahydro-3-methoxy-13-methyl-5,7-dioxo-5H-indolo[2,3-a]pyrrolo[3,4-c]-carbazole] are 24 nM, 1 and 24 nM.
For `O=C1NC(=O)c2c1c1c3ccccc3[nH]c1c1[nH]c3cc(Cl)ccc3c21` [Example 11c, 2-chloro-6,7,12,13-tetrahydro-5,7-dioxo-5H-indolo[2,3-a]pyrrolo[3,4-c]carbazole], in experiment [1], the IC50 amounted to 86 nM; the “MLC kinase inhibition, in words” value was “potent and selective inhibitors of MLC kinase”; the “ratio of IC50 C-kinase/IC50 MLC-kinase” value is listed as 47. In addition, on protein kinase C, the IC50 turned out to be 4000 nM.

(Values after US5945440A, “Indolocarbazole imides and the use thereof” (priority 1992, dated 1999).)
